Measured values published in paper PMC9062502 (RSC Advances, 2019).

Legend:
[1] = partition coefficient; ref https://pubchem.ncbi.nlm.nih.gov/compound/; cited from earlier work
xanthine oxidase = xanthine oxidase (Bos taurus, UniProt P80457); test: Fluorescence-quenching binding to xanthine oxidase; conditions: for Affinity n (number of binding sites per enzyme molecule): double-logarithm formula; for Affinity n (number of binding sites per enzyme molecule) / Affinity K sv (dynamic quenching constant): 25 °C; for Affinity K sv (dynamic quenching constant): xanthine oxidase 1.0 μmol L^−1 in PBS, λex 280 nm, emission 335 nm; for Quenching of xanthine oxidase fluorescence (in words): no binding constant value
Chain of xanthine oxidase (P80457 2-1332): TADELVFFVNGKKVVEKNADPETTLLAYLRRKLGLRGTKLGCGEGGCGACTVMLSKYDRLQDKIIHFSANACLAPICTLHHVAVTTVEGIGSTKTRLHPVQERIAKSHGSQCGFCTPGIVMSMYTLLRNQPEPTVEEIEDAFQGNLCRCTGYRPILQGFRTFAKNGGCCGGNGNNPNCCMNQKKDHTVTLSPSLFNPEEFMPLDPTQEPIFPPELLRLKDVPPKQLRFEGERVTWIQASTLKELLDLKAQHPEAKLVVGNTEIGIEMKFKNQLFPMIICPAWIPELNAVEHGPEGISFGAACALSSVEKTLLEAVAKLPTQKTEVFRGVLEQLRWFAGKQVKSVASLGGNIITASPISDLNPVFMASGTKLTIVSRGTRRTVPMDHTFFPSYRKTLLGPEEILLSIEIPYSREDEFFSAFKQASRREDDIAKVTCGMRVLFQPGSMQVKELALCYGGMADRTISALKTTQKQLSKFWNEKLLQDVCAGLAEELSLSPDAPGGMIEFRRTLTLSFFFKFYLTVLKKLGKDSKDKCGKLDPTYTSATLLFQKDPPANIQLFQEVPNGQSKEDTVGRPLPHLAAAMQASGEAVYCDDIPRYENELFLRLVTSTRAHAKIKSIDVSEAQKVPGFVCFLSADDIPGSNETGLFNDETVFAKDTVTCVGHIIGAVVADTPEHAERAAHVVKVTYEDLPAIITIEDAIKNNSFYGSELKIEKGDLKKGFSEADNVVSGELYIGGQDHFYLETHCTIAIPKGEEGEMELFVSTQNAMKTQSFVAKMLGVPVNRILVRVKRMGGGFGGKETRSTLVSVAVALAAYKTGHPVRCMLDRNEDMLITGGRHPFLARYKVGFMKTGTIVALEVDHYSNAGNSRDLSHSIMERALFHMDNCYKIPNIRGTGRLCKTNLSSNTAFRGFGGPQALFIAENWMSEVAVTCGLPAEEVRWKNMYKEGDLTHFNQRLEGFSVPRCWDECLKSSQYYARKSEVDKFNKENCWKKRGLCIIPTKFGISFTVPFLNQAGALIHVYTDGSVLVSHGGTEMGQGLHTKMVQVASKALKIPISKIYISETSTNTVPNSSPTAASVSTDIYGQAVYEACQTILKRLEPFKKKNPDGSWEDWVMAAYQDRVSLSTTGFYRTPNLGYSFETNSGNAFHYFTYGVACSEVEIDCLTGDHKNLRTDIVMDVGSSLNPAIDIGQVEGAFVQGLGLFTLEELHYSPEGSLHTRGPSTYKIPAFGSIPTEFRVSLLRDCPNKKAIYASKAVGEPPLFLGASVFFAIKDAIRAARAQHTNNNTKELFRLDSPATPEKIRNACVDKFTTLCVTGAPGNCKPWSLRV

SMILES: O=c1c(-c2ccc(O)cc2)coc2c([C@@H]3O[C@H](CO)[C@@H](O)[C@H](O)[C@H]3O)c(O)ccc12 [Puerarin]
- X log P3 [1]: 0.0
- Affinity n (number of binding sites per enzyme molecule) (xanthine oxidase): 1.1801
- Affinity K sv (dynamic quenching constant) (xanthine oxidase): 0.0290 10^6

SMILES: Oc1cc(O)c2c(c1)O[C@H](c1ccc(O)c(O)c1)[C@H](O)C2 [EC (2,3-cis), epicatechin]
- Quenching of xanthine oxidase fluorescence (in words) (xanthine oxidase): not able to quench the fluorescence

SMILES: COc1ccc(-c2cc(=O)c3c(OC)c(OC)c(OC)c(OC)c3o2)cc1OC [Nobiletin]
- X log P3 [1]: 3.0
- Affinity n (number of binding sites per enzyme molecule) (xanthine oxidase): 2.8371
- Affinity K sv (dynamic quenching constant) (xanthine oxidase): 0.9637 10^6

SMILES: COc1c(O)cc2occ(-c3ccc(O)cc3)c(=O)c2c1O [Tectorigenin]
- X log P3 [1]: 2.6
- Affinity n (number of binding sites per enzyme molecule) (xanthine oxidase): 0.6283
- Affinity K sv (dynamic quenching constant) (xanthine oxidase): 0.0644 10^6

SMILES: O=c1cc(-c2ccccc2)oc2ccccc12 [Flavone]
- X log P3 [1]: 3.6
- Affinity n (number of binding sites per enzyme molecule) (xanthine oxidase): 1.3695
- Affinity K sv (dynamic quenching constant) (xanthine oxidase): 0.0552 10^6

SMILES: O=C1c2c(O)cc(O)cc2O[C@H](c2cc(O)c(O)c(O)c2)[C@H]1O [Dihydromyricetin]
- X log P3 [1]: 1.1
- Affinity n (number of binding sites per enzyme molecule) (xanthine oxidase): 1.2262
- Affinity K sv (dynamic quenching constant) (xanthine oxidase): 0.0470 10^6

SMILES: Oc1cc(O)c2c(c1)O[C@@H](c1cc(O)c(O)c(O)c1)[C@H](O)C2 [GC (2,3-trans), (−)-gallocatechin]
- Quenching of xanthine oxidase fluorescence (in words) (xanthine oxidase): not able to quench the fluorescence

SMILES: O=C(O)[C@H]1O[C@@H](Oc2cc3oc(-c4ccccc4)cc(=O)c3c(O)c2O)[C@H](O)[C@@H](O)[C@@H]1O [Baicalin]
- X log P3 [1]: 1.1
- Affinity n (number of binding sites per enzyme molecule) (xanthine oxidase): 1.8782
- Affinity K sv (dynamic quenching constant) (xanthine oxidase): 0.3668 10^6

SMILES: O=c1c(O)c(-c2cc(O)c(O)c(O)c2)oc2cc(O)cc(O)c12 [Myricetin]
- X log P3 [1]: 1.2
- Affinity n (number of binding sites per enzyme molecule) (xanthine oxidase): 1.0764
- Affinity K sv (dynamic quenching constant) (xanthine oxidase): 0.0294 10^6

SMILES: C[C@@H]1O[C@@H](Oc2cc(O)c3c(=O)c(O[C@@H]4O[C@@H](C)[C@H](O)[C@@H](O)[C@H]4O)c(-c4ccc(O)cc4)oc3c2)[C@H](O)[C@H](O)[C@H]1O [Kaempferitrin]
- X log P3 [1]: −0.1

SMILES: O=C(O[C@@H]1Cc2c(O)cc(O)cc2O[C@@H]1c1cc(O)c(O)c(O)c1)c1cc(O)c(O)c(O)c1 [EGCG (2,3-cis), (−)-epigallocatechin gallate]
- Affinity n (number of binding sites per enzyme molecule) (xanthine oxidase): 1.2461
- Affinity K sv (dynamic quenching constant) (xanthine oxidase): 0.0226 10^6

SMILES: O=c1c(O)c(-c2ccc(O)cc2)oc2cc(O)cc(O)c12 [Kaempferol]
- X log P3 [1]: 1.9
- Affinity n (number of binding sites per enzyme molecule) (xanthine oxidase): 1.0535
- Affinity K sv (dynamic quenching constant) (xanthine oxidase): 0.0225 10^6

SMILES: O=c1cc(-c2ccccc2)oc2cc(O)c(O)c(O)c12 [Baicalein]
- X log P3 [1]: 1.7
- Affinity n (number of binding sites per enzyme molecule) (xanthine oxidase): 1.5312
- Affinity K sv (dynamic quenching constant) (xanthine oxidase): 0.1981 10^6

SMILES: O=c1c(-c2ccc(O)cc2)coc2cc(O)cc(O)c12 [Genistein]
- X log P3 [1]: 2.7
- Affinity n (number of binding sites per enzyme molecule) (xanthine oxidase): 1.3911
- Affinity K sv (dynamic quenching constant) (xanthine oxidase): 0.0537 10^6

SMILES: C[C@@H]1O[C@@H](O[C@H]2[C@H](Oc3cc(O)c4c(c3)O[C@H](c3ccc(O)cc3)CC4=O)O[C@H](CO)[C@@H](O)[C@@H]2O)[C@H](O)[C@H](O)[C@H]1O [Naringin]
- X log P3 [1]: −0.5
- Affinity n (number of binding sites per enzyme molecule) (xanthine oxidase): 1.6838
- Affinity K sv (dynamic quenching constant) (xanthine oxidase): 0.0846 10^6

SMILES: COc1ccc(-c2cc(=O)c3c(OC)c(OC)c(OC)c(OC)c3o2)cc1 [Tangeretin]
- X log P3 [1]: 3.0
- Affinity n (number of binding sites per enzyme molecule) (xanthine oxidase): 1.0022
- Affinity K sv (dynamic quenching constant) (xanthine oxidase): 0.1498 10^6

SMILES: O=c1cc(-c2ccc(O)cc2)oc2cc(O)cc(O)c12 [Apigenin]
- X log P3 [1]: 1.7
- Affinity n (number of binding sites per enzyme molecule) (xanthine oxidase): 0.4524
- Affinity K sv (dynamic quenching constant) (xanthine oxidase): 0.0285 10^6

SMILES: O=c1cc(-c2ccccc2)oc2cc(O)cc(O)c12 [Chrysin]
- X log P3 [1]: 2.1
- Affinity n (number of binding sites per enzyme molecule) (xanthine oxidase): 0.6025
- Affinity K sv (dynamic quenching constant) (xanthine oxidase): 0.0195 10^6

SMILES: C[C@@H]1O[C@@H](OC[C@H]2O[C@@H](Oc3c(-c4ccc(O)c(O)c4)oc4cc(O)cc(O)c4c3=O)[C@H](O)[C@@H](O)[C@@H]2O)[C@H](O)[C@H](O)[C@H]1O [Rutin]
- X log P3 [1]: −1.3
- Affinity n (number of binding sites per enzyme molecule) (xanthine oxidase): 1.2904
- Affinity K sv (dynamic quenching constant) (xanthine oxidase): 0.0532 10^6

SMILES: COc1ccc(-c2oc3cc(O)cc(O)c3c(=O)c2O)cc1 [Kaempferide]
- X log P3 [1]: 2.2

SMILES: COc1ccc(-c2coc3cc(O)ccc3c2=O)cc1 [Formononetin]
- X log P3 [1]: 2.8
- Affinity n (number of binding sites per enzyme molecule) (xanthine oxidase): 0.6866
- Affinity K sv (dynamic quenching constant) (xanthine oxidase): 0.0147 10^6

SMILES: COc1c(O)cc2oc(-c3ccc(O)cc3)cc(=O)c2c1O [Hispidulin]
- X log P3 [1]: 1.7
- Affinity n (number of binding sites per enzyme molecule) (xanthine oxidase): 1.2571
- Affinity K sv (dynamic quenching constant) (xanthine oxidase): 0.0989 10^6

SMILES: O=c1c(O)c(-c2ccccc2)oc2cc(O)cc(O)c12 [Galangin]
- X log P3 [1]: 2.3
- Affinity n (number of binding sites per enzyme molecule) (xanthine oxidase): 0.9038
- Affinity K sv (dynamic quenching constant) (xanthine oxidase): 0.0276 10^6

SMILES: O=c1c(-c2ccc(O)cc2)coc2cc(O)ccc12 [Daidzein]
- Affinity n (number of binding sites per enzyme molecule) (xanthine oxidase): 1.2554
- Affinity K sv (dynamic quenching constant) (xanthine oxidase): 0.0230 10^6

SMILES: O=c1c(O)c(-c2ccc(O)c(O)c2)oc2cc(O)ccc12 [Fisetin]
- X log P3 [1]: 2.0
- Affinity n (number of binding sites per enzyme molecule) (xanthine oxidase): 1.3663
- Affinity K sv (dynamic quenching constant) (xanthine oxidase): 0.0729 10^6

SMILES: O=c1cc(-c2ccc(O)c(O)c2)oc2cc(O)cc(O)c12 [Luteolin]
- X log P3 [1]: 1.4
- Affinity n (number of binding sites per enzyme molecule) (xanthine oxidase): 1.3087
- Affinity K sv (dynamic quenching constant) (xanthine oxidase): 0.0926 10^6

SMILES: O=C1C[C@@H](c2ccc(O)cc2)Oc2cc(O)cc(O)c21 [Naringenin]
- X log P3 [1]: 2.4
- Fold increase of affinity for xanthine oxidase after glycosylation (xanthine oxidase; aglycone named, 3,7-glycosylation of kaempferol, 3-glycosylation of quercetin, 7-glycosylation of naringenin): 73.3 times
- Fold higher affinity for xanthine oxidase than the C2=C3 unsaturated counterpart (xanthine oxidase; dihydromyricetin versus myricetin, naringenin versus apigenin): 4676 times
- Affinity n (number of binding sites per enzyme molecule) (xanthine oxidase): 1.2510
- Affinity K sv (dynamic quenching constant) (xanthine oxidase): 0.0568 10^6

SMILES: O=c1c(O)c(-c2ccc(O)c(O)c2)oc2cc(O)cc(O)c12 [Quercetin]
- X log P3 [1]: 1.5
- Affinity n (number of binding sites per enzyme molecule) (xanthine oxidase): 1.0614
- Affinity K sv (dynamic quenching constant) (xanthine oxidase): 0.0477 10^6
